Values of other authors as cited in US6896899B2, “Pharmaceutical preparations of glutathione and methods of administration thereof” (Antioxidant Pharmaceuticals Corp., priority 1996, dated 2005).

Tests used:
hematologic parameters = details: 1,200 mg/day intravenously
HIV = details: acutely infected cells, chronically infected cells, normal peripheral blood mononuclear cells
[1] = human, in vivo, iv
[2] = human, in vivo, po, 15 mg/kg
blood pressure = details: 3,699 mg dose, normal subjects
Mouse = details: GSH pretreatment

Compound | hematologic parameters (hematocrit, hemoglobin, blood count) compared to baseline (hematologic parameters) | cytokine-stimulated HIV expression and replication (HIV) | volume of distribution of exogenous glutathione [1] | plasma glutathione levels over the basal concentration [2] | blood pressure (blood pressure) | protection against morphine-induced lethality (Mouse) | tumor growth and survival (hepatocellular carcinoma; 5 g oral GSH per day) | side-effects (hepatocellular carcinoma; human, in vivo, po)
N[C@@H](CCC(=O)N[C@@H](CS)C(=O)NCC(=O)O)C(=O)O [GSH, gamma-glutamyl-cysteinyl-glycine] | significantly increase | can inhibit | 176-107 Ml/Kg | 1.5-10 fold | significant decrease | protects against morphine-induced lethality | Two of the female patients survived 1 year and exhibited regression or stagnation of their tumor growth | Two patients withdrew shortly after receiving GSH due to intolerable side-effects
CC(=O)N[C@@H](CS)C(=O)O [NAC, N-acetyl cysteine] | – | can inhibit | – | – | – | – | – | –
